Test [1] has as its system airway hyperresponsiveness. The conditions noted are these: multiple antigen challenges, primate model; cited from earlier work.
In test [2] the test system is ionophore-induced LTB4 production. The conditions noted are these: oral administration; cited from earlier work.
For a further test, the system named is colitis symptoms. The conditions noted are these: eight weeks of treatment; cited from earlier work.
In test [3] the test system is ionophore-induced LTB4 production. The conditions noted are these: oral administration; cited from earlier work. This is another data set of the same source.
Test [4] concerns LTB4 production in murine blood (LTA4H). Put plainly: LTB4 production by calcium ionophore-stimulated murine blood for LTA4H inhibitor activity. Format: cell-based, CD-1 mice. To be noted: Mus musculus; murine blood diluted 1 in 15, A23187 stimulated; single determination or average; mark after value = form tested: ′ free base, ″ hydrochloride, ^ formate; read-out: IC50. The gist of the method:
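LTB4 was measured by ELISA in supernatants after calcium ionophore A23187 stimulation (final 7 μg/mL, 30 min, 37° C) of CD-1 mouse blood collected on heparin. Compound was preincubated with the blood for 15 min beforehand. Values come from one determination or average several.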

Test [5] concerns the target T1, recombinant human LTA4 hydrolase (rhLTA4H) (Homo sapiens, UniProt P09960).
T1 construct: made in house; host or cells: Spodoptera frugiperda (Sf-9) cells, baculovirus (pFastBac1)
T1 sequence (P09960 1-611): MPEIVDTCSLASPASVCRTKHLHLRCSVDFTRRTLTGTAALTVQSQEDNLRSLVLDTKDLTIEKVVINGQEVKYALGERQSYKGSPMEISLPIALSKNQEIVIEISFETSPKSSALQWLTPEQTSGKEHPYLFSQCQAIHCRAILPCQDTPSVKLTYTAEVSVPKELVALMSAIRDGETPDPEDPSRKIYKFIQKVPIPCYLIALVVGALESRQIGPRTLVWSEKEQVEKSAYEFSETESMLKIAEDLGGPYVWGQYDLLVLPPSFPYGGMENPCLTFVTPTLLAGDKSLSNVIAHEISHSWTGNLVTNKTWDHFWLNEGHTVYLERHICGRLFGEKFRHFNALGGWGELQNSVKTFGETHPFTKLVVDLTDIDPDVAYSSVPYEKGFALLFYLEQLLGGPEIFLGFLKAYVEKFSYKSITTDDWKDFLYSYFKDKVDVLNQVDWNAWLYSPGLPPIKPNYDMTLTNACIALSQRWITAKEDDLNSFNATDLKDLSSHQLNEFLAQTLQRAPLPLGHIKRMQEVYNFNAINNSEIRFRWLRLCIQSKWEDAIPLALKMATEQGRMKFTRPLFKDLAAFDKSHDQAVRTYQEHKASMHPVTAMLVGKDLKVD
Description: Recombinant human LTA4 hydrolase assay for LTA4 hydrolase inhibitor activity. To be noted: rhLTA4H, LTB4 by immunoassay; single determination or average of two or more; mark after value = form tested: ′ free base, ″ hydrochloride, ^ formate; read-out: IC50. In kind it is biochemical. The procedure, abridged: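 LTB4 formation, measured by enzyme immunoassay, was the read-out. The enzyme, recombinant human LTA4H expressed in Sf-9 insect cells (10 ng per reaction), was exposed to compound for 10 min at room temperature before hydrolysed-ester LTA4 substrate was added for 30 min. Enzyme-free negatives were included.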

The test system of test [6] is ex vivo calcium ionophore-stimulated LTB4 production in whole blood. Put plainly: Murine arachidonic acid-induced inflammation model: ex vivo stimulated LTB4 production in blood. The arrangement: species or system Balb/c mice. The conditions noted are these: Mus musculus; 30 mg/kg oral gavage; blood diluted 1:1, A23187 stimulated ex vivo; percent inhibition of LTB4 production; read-out: % Inh. LTB4.

The test system of test [7] is arachidonic acid-induced neutrophil influx in murine ear tissue. Description: Murine arachidonic acid-induced inflammation model: neutrophil influx (myeloperoxidase) in ear. In kind it is in vivo, Balb/c mice. The conditions noted are these: Mus musculus, read-out: % Inh. MPO.
Setting [8] is: 30 mg/kg oral gavage, 60 min before topical arachidonic acid, ear biopsy after 3 h, percent inhibition of neutrophil influx.

Counter-ions that a name gives are not always drawn. Like-named read-outs stand apart in the source and are kept apart here.

For `O=C(O)C1(c2ccc3c(c2)OC[C@H](Cc2ccc(-c4ccccc4)cc2)[C@H]3O)CCCC1` [CP-105,696], the airway hyperresponsiveness result in test [1] is “reduced”.
With `CN(CCCOc1ccc(Cc2ccccc2)cc1)CCC(=O)O.Cl` [SC57461], the “ionophore-induced LTB4 production in rat peritoneum in vivo” value in test [2] is given as “caused inhibition”. Moreover, in the test with colitis symptoms, the colitis symptoms result was “significantly improved”. In addition, the “ionophore-induced LTB4 production in mouse blood ex vivo” value in test [3] was “caused inhibition”.
`CC(=O)N1C[C@@H]2CC[C@H]1CN2Cc1cc2ncc(Oc3nc4ncccc4s3)cc2o1` [Example 339, (1S,4S)-1-{5-[6-(Thiazolo[4,5-b]pyridin-2-yloxy)-furo[3,2-b]pyridin-2-ylmethyl]-2,5-diaza-bicyclo[2.2.2]oct-2-yl}-ethanone formate]: the 50% inhibitory concentration (IC50) amounted to 70 nM in test [4] and 12 nM in test [5]. Further, the inhibition at 30 mg/kg in test [6] and in test [7] (Neutrophil) was 50% throughout.
As to `NC(=O)N1CC2CCC(C1)N2C(=O)c1coc2cc(Oc3nc4ncccc4s3)ccc12` [Example 374, meso-8-[6-(Thiazolo[4,5-b]pyridin-2-yloxy)-benzofuran-3-carbonyl]-3,8-diaza-bicyclo[3.2.1]octane-3-carboxylic acid amide], the 50% inhibitory concentration (IC50) in test [4] turned out to be 50 nM; in test [5] it was 11 nM. The inhibition at 30 mg/kg stood at 7% in test [6] and 37% in test [7] (setting [8]).
On the same counts, the results for `CC(=O)N[C@H]1C[C@H]2CC[C@@H](C1)N2Cc1cc2ccc(Oc3nc4ncccc4s3)cc2s1` [Example 135, meso-endo-N-{8-[6-(Thiazolo[4,5-b]pyridin-2-yloxy)-benzo[b]thiophen-2-ylmethyl]-8-aza-bicyclo[3.2.1]oct-3-yl}-acetamide] are 110 nM, 3 nM, 85% and 42%.
As for `CC(=O)N1CCC(N(Cc2coc3cc(Oc4nc5ncccc5s4)ccc23)C2CC2)CC1` [Example 238, 1-(4-{Cyclopropyl-[6-(thiazolo[4,5-b]pyridin-2-yloxy)-benzofuran-3-ylmethyl]-amino}-piperidin-1-yl)-ethanone], the IC50 was 44 nM in test [4] and 5 nM in test [5]. The figures for the inhibition at 30 mg/kg in test [6] and in test [7] (setting [8]) were 93% and 77%, respectively.
The like results for `C[C@H]1COCCN1Cc1coc2cc(Oc3nc4ncccc4s3)ccc12` [Example 159, (S)-2-[3-(3-Methyl-morpholin-4-ylmethyl)-benzofuran-6-yloxy]-thiazolo[4,5-b]pyridine] were, in that order, 79 nM, 16 nM, 83% and 78%.
On the same counts, the results for `CC(=O)NCC1CCN(Cc2coc3cc(Oc4nc5ncccc5s4)ccc23)CC1` [Example 162, N-{1-[6-(Thiazolo[4,5-b]pyridin-2-yloxy)-benzofuran-3-ylmethyl]-piperidin-4-ylmethyl}-acetamide] are 26 nM, 1 nM, 90% and 87%.
On to `O=C1CCCN1C1CCN(Cc2coc3cc(Oc4nc5ncccc5s4)ccc23)CC1` [Example 215, 1-{1-[6-(Thiazolo[4,5-b]pyridin-2-yloxy)-benzofuran-3-ylmethyl]-piperidin-4-yl}-pyrrolidin-2-one], for which the IC50 turned out to be 21 nM in test [4] and 3 nM in test [5]. Besides, the inhibition at 30 mg/kg in test [6] amounted to 88%; in test [7] (setting [8]), 78%.

Broadly, the IC50 is the point on the concentration scale where inhibition reaches its midpoint.

(Values after US8399465B2, “Compounds with two fused bicyclic heteroaryl moieties as modulators of leukotriene A4 hydrolase” (Janssen Pharmaceutica NV, priority 2009, dated 2013).)
